Assay results published in PubChem BioAssay AID1645848.
Converted amounts (≈) assume the structure as drawn.

Conditions: buffer; pH 7.4; 6.0 h; 150.0 µM

| solubility kinetic | Structure (SMILES) |
| --- | --- |
| < 1 µg/mL | Cc1cccc2nc(-c3cccnc3)c(Nc3ccc(C(C)C)cc3)n12 |
| 45.8 µg/mL (≈ 101 µM) | O=C(Nc1nc(-c2ccccc2)cs1)c1ccncc1NS(=O)(=O)c1ccc(F)cc1 |
| < 1 µg/mL | Cc1nc(N2CCN(c3ccccn3)CC2)c2c(C)c(C(=O)Nc3ccc(F)cc3Cl)sc2n1 |
| < 1 µg/mL | Fc1ccc(Nc2nc(-c3ccncc3Cl)nc3ccccc23)cc1F |
| 52.4 µg/mL (≈ 140 µM) | Cn1ccc2c(C(=O)NCC3CCC(=O)N3)nc(-c3ccccc3C#N)cc21 (centres undefined) |
| < 1 µg/mL | O=C(Nc1cncc(Cc2ccccc2)c1)c1ccc(-c2cccc([N+](=O)[O-])c2)o1 |
| > 70 µg/mL | Cc1ccc(NC(=O)CSc2ncc(S(=O)(=O)c3ccc(C(C)C)cc3)c(=O)[nH]2)cc1C |
| 2.08 µg/mL (≈ 4.72 µM) | COc1cccc(CNc2ccc(S(=O)(=O)Nc3nc4ccccc4s3)cc2)c1O |
| < 1 µg/mL | COC(=O)c1ccc(Nc2nc(-c3ccncc3)nc3ccccc23)cc1OC |
| < 1 µg/mL | Oc1ccc(Nc2nc(-c3ccncc3)nc3ccccc23)cc1F |
| 29.4 µg/mL (≈ 68.5 µM) | CCN1C(=O)c2ccccc2[S@](=O)c2ccc(C(=O)NCc3ccc(C#N)cc3)cc21 |
| 1.84 µg/mL (≈ 4.18 µM) | O=S(=O)(Nc1cnc2ccccc2c1)c1ccc(NCc2cccc(Cl)c2O)cc1 |
| < 1 µg/mL | CCc1ccccc1Nc1ncnc2c1cnn2-c1ccc(Cl)cc1 |
| > 65 µg/mL | Cc1ccc(NS(=O)(=O)c2cccc(C(=O)O)c2)cc1S(=O)(=O)N1CCOCC1 |
| 40.3 µg/mL (≈ 85.4 µM) | Cc1cc(C)c(CNC(=O)c2nc(-c3ccc(CN(C)C)cc3)cc3c2ccn3C(C)C)c(=O)[nH]1 |
| 28.1 µg/mL (≈ 70.4 µM) | COc1cc(-c2ccnc3c2c(C)nn3-c2ccc(C(F)(F)F)cc2)ccc1O |
| > 51 µg/mL | Cc1cccc(-c2[nH]c(C(C)(C)C)nc2-c2ccc3nccnc3c2)n1 |
| > 63 µg/mL | CCOC(=O)N1CCN(Cc2nc3cc(NC(=O)CC(C)C)ccc3n2C(C)C)CC1 |
| < 1 µg/mL | O=[S+]([O-])(Nc1nccs1)c1ccc(NCc2cc(Cl)cc(Br)c2O)cc1 |
| > 69 µg/mL | CCNC(=O)c1noc(-c2cc(C(C)C)c(O)cc2O)c1-c1ccc(CN2CCOCC2)cc1 |
| < 1 µg/mL | COc1ccc(CN(C2CCCCC2C)S(=O)(=O)c2ccc(S(=O)(=O)N(C)C)cc2)cc1OC (centres undefined) |
| 1.06 µg/mL (≈ 2.48 µM) | COc1ccc(C2c3[nH]c4ccc(OC)cc4c3CCN2C(=O)Nc2ccccc2)cc1 (centres undefined) |
| < 1 µg/mL | COC(=O)c1cc2occc2n1Cc1nc(-c2ccc(C)cc2)oc1C |
| < 1 µg/mL | CC(C)c1ccc(OCc2nc3c(n2Cc2ccccc2)C(=O)N(CC2CC2)CCN3)cc1 |
| > 66 µg/mL | CN1CCN(CCCN2c3ccccc3Sc3ccc(S(=O)(=O)N(C)C)cc32)CC1.CS(=O)(=O)O.CS(=O)(=O)O |

| solubility kinetic | Structure (SMILES) |
| --- | --- |
| < 1 µg/mL | CCc1cccc(NC(=O)CSc2nc3ccccc3nc2N2CCCCC2)c1 |
| < 1 µg/mL | Cc1ccc(S(=O)(=O)Nc2ccccc2CNc2nc(-c3ccccc3)cs2)cc1 |
| 31.9 µg/mL (≈ 91.9 µM) | COc1ccc(-c2ccc3ncc(Nc4ccncc4)n3n2)cc1OC |
| < 1 µg/mL | Cc1ccc(NC2=C(c3ccc(C(F)(F)F)cc3)C(=O)c3ccccc32)cc1F |
| 2.27 µg/mL (≈ 5.87 µM) | COC(=O)CNC(=O)c1nc(-c2ccc([S+](C)(=O)[O-])cc2)c2ccccn12 |
| < 1 µg/mL | Cc1ccc(-c2cc(C(=O)Nc3ccc(S(N)(=O)=O)cc3)c3ccccc3n2)cc1C |
| 55.6 µg/mL (≈ 119 µM) | COc1ccc(NC(=O)c2[nH]c(C)c(C(C)=O)c2C)cc1[S+](=O)([O-])Nc1ccccc1C#N |
| 2.11 µg/mL (≈ 4.15 µM) | Cc1ccc(S(=O)(=O)Nc2cnccc2C(=O)Nc2nc(-c3nc4ccccc4s3)cs2)cc1 |
| < 1 µg/mL | COc1ccc(Cl)cc1C(=O)Nc1ccc(NC(=O)c2ccco2)cc1 |
| < 1 µg/mL | Cc1ccc(OCCn2c(CCNC(=O)c3ccccc3Br)nc3ccccc32)cc1 |
| 18.5 µg/mL (≈ 44.7 µM) | O=[S+]([O-])(Nc1nccs1)c1ccc(NCc2cc(F)cc(Cl)c2O)cc1 |
| 3.49 µg/mL (≈ 7.48 µM) | CCc1ccc(NC(=O)[C@H](Cc2c[nH]c3ccccc23)NC(=O)[C@@H]2Cc3ccccc3CN2)cc1 |
| < 1 µg/mL | CCOC(=O)c1ccc(N2C(=O)c3[nH]nc(-c4ccc(OC)cc4)c3C2c2ccc(C)cc2)cc1 (centres undefined) |
| 6.63 µg/mL (≈ 15.7 µM) | COc1ccc(CCNC(=O)Cn2c(=O)c3cccn3c3ccc(F)cc32)cc1OC |
| < 1 µg/mL | COc1cc(NC(=O)Cn2c(=O)oc3cc(S(=O)(=O)N4CCCCCC4)ccc32)cc(OC)c1 |
| < 1 µg/mL | CCOC(=O)c1ccc(N2C(=O)c3n[nH]c(-c4cccs4)c3C2c2ccc(OCC)cc2)cc1 (centres undefined) |
| < 1 µg/mL | O=S(=O)(c1ccccc1)c1nc(-c2ccc(F)cc2)oc1N1CCCCCC1 |
| 21.9 µg/mL (≈ 49.9 µM) | O=C(NCCCN1CCCC1=O)c1ccc(-c2ncc3cnc(-c4ccccc4)cn23)cc1 |
| 3.41 µg/mL (≈ 14.5 µM) | Cc1ccc2[nH]c(-c3ccccc3)cc(=O)c2c1 |
| < 1 µg/mL | CC(=O)N1CCc2cc(-c3nc(NC(=O)Cc4ccc5c(c4)OCO5)sc3C)ccc21 |
| < 1 µg/mL | COc1cc2ncnc(Nc3ccc(Oc4ccccc4)cc3)c2cc1OC |
| 1.14 µg/mL (≈ 4.28 µM) | CC(=O)c1c(C)n(-c2ccccc2)c2ccc(O)cc12 |
| < 1 µg/mL | Cc1sc2c(c1C)C(c1ccc(Cl)cc1)=N[C@@H](CC(=O)Nc1ccc(OCCOCCOCCOCCNc3cccc4c3C(=O)N(C3CCC(=O)NC3=O)C4=O)cc1)c1nnc(C)n1-2 (some centres undefined) |
| < 1 µg/mL | CCN(CC)C(=O)c1sc2c(c1C)c(=O)n(Cc1ccccc1)c(=O)n2CC(=O)Nc1ccc(OC)cc1 |

More lines, now with the values behind:

| Structure (SMILES) | solubility kinetic |
| --- | --- |
| Cc1cc(C)nc(NC(=S)N2CCN(c3cccc([N+](=O)[O-])c3)CC2)c1 | 4.04 µg/mL (≈ 10.9 µM) |
| CCOc1ccc(CCNC(=O)c2ccc(Oc3ccccc3)cc2)cc1OCC | < 1 µg/mL |
| C=CCc1ccc(O)c(-c2ccc(O)c(CC=C)c2)c1 | > 100 µg/mL |
| FC(F)(F)c1cccc(N2CCN(C(=S)Nc3nccc4ccccc34)CC2)c1 | < 1 µg/mL |
| COc1ccc(OC)c(-c2nc3c(C#N)c[nH]n3c2NC2CCCCC2)c1 | 12.2 µg/mL (≈ 33.5 µM) |
| O=C(Nc1cc(C(F)(F)F)ccc1N1CCOCC1)c1n[nH]c(=O)c2ccccc12 | < 1 µg/mL |
| c1ccc(CNc2nc(NCc3ccccc3)c3ccccc3n2)cc1 | < 1 µg/mL |
| NC(=O)C1CCN(c2nc(-c3ccccc3Br)cs2)CC1 | > 54 µg/mL |
| Cc1nc([C@](C)(O)CO)sc1-c1cnc(N)c(O[C@H](C)c2cc(F)ccc2-n2nccn2)c1 | 37.3 µg/mL (≈ 79.2 µM) |
| CN1CCCC(CC2c3ccccc3Sc3ccccc32)C1.Cl (centres undefined) | > 46 µg/mL |
| Clc1ccc(C2=Nn3c(nnc3-c3ccncc3)SC2)cc1 | 1.45 µg/mL (≈ 4.42 µM) |
| COc1ccc(CCN2CCC(Nc3nc4ccccc4n3Cc3ccc(F)cc3)CC2)cc1 | 54.6 µg/mL (≈ 119 µM) |
| Nc1nc2c(s1)C(c1cccc(F)c1F)CC(=O)N2 (centres undefined) | 8.33 µg/mL (≈ 29.6 µM) |
| Fc1cccc(Nc2nc(-c3ccncc3)nc3ccccc23)c1F | < 1 µg/mL |
| Cc1ccc(C)n1-c1cccc(C(=O)O)c1 | > 32 µg/mL |
| O=C(Nc1ncnc2sc3c(c12)CCC3)c1ccco1 | 11.5 µg/mL (≈ 40.4 µM) |
| O=C1CCc2ccc(OCCCCN3CCN(c4cccc(Cl)c4Cl)CC3)cc2N1 | < 1 µg/mL |
| COc1ccc(-c2csc(CCn3nc(C)c4c(C(F)(F)F)cc(=O)[nH]c43)n2)cc1 | < 1 µg/mL |
| COc1c2c(c3c(c1CCC(=O)O)OC(C)(C)C=C3)OC(C)(C)C=C2 | > 51 µg/mL |
| Cc1cc(C)nc(NC(=S)N2CCN(c3ccc4nsnc4c3)CC2)c1 | 27.7 µg/mL (≈ 72.1 µM) |
| O=S(=O)(c1ccccc1)N1CCN(c2nc(-c3ccc(Br)cc3)cs2)CC1 | 1.23 µg/mL (≈ 2.66 µM) |
| CCOC(=O)[C@H]1O[C@@H]1C(=O)N[C@@H](CC(C)C)C(=O)NCCC(C)C | 24 µg/mL (≈ 70.1 µM) |
| Cc1cc(C(=O)Nc2nnc(C3CCCCC3)s2)cs1 | < 1 µg/mL |
| COc1cccc(Nc2nc(-c3ccncc3)nc3ccccc23)c1 | < 1 µg/mL |
| Cc1ccnc(NC(=S)N2CCC(c3cccc(C(F)(F)F)c3)CC2)c1 | 7.75 µg/mL (≈ 20.4 µM) |

| Structure (SMILES) | solubility kinetic |
| --- | --- |
| NC(=O)C1CCN(c2nc(-c3ccc(Cl)cc3)cs2)CC1 | 1.52 µg/mL (≈ 4.72 µM) |
| COc1ccc(/C=C2/C(=O)Nc3ccccc32)cc1O | 29.2 µg/mL (≈ 109 µM) |
| Cn1cnc(-c2nccc3c(=O)[nH]c(OCCCC(F)(F)F)nc23)c1 | > 52 µg/mL |
| c1ccc(-c2nnc3n2NC(c2ccc4c(c2)OCO4)S3)cc1 (centres undefined) | 1.56 µg/mL (≈ 4.82 µM) |
| N=c1c2c(ncn1-c1ccccc1)Oc1ccc3ccccc3c1C2c1ccc2c(c1)CCO2 (centres undefined) | 2 µg/mL (≈ 4.5 µM) |
| O=C1CCCC2=C1C(c1[nH]ncc1Cl)N=C(Nc1nc3cc([S+](=O)([O-])N4CCCC4)ccc3o1)N2 (centres undefined) | 36.2 µg/mL (≈ 70.2 µM) |
| CCC(CC)c1cc([C@H]2CN3CC[C@H]2C[C@@H]3CNC(=O)COc2ccccc2)nc(-c2ccncc2)n1 | > 74 µg/mL |
| Oc1ccc2[nH]cc(CCCCN3CC=C(c4ccccc4)CC3)c2c1 | 42.4 µg/mL (≈ 122 µM) |
| NC(=O)C1CCN(c2nc(-c3ccc(Oc4ccccc4)cc3)cs2)CC1 | < 1 µg/mL |
| O=c1c2ccccc2nc2n1CCC2 | > 27 µg/mL |
| OCCOCCN1CCN(C(c2ccccc2)c2ccc(Cl)cc2)CC1 (centres undefined) | > 55 µg/mL |
| CC[C@H]1CN(C)[C@H]2Cc3c([nH]c4ccccc34)C(=O)C[C@H]1[C@H]2C(=O)OC | > 52 µg/mL |
| O=c1[nH]cnc2nc[nH]c12 | 8.8 µg/mL (≈ 64.7 µM) |
| Fc1ccc(-c2ccc(Nc3nc(-c4ccncc4)nc4ccccc34)cc2F)c(F)c1 | < 1 µg/mL |
| CS(=O)(=O)c1ccccc1-c1csc(N2CCC(C(N)=O)CC2)n1 | > 54 µg/mL |
| C[C@@]12O[C@@H](C[C@]1(O)CO)n1c3ccccc3c3c4c(c5c6ccccc6n2c5c31)CNC4=O | 15.2 µg/mL (≈ 34.6 µM) |
| Cc1ccnc(NC(=S)N2CCN(c3ccc(C(F)(F)F)cc3[N+](=O)[O-])CC2)c1 | 4.11 µg/mL (≈ 9.67 µM) |
| c1ccc2c(Nc3ccn[nH]3)nc(-c3ccncc3)nc2c1 | < 1 µg/mL |
| CCOc1ccc(N2CC(c3nc(-c4cc(OC)c(OC)c(OC)c4)no3)CC2=O)cc1 (centres undefined) | 2.38 µg/mL (≈ 5.41 µM) |
| COc1cc(-c2nc(-c3c(C)noc3C)cc3c2cc(C)n3CCN(C)C)ccn1 | > 90 µg/mL |
| FC(F)(F)Oc1cccc(Nc2nc(-c3ccncc3)nc3ccccc23)c1 | < 1 µg/mL |
| COc1ccc(-n2nc(C3CCCN(C(=O)c4ccccc4)C3)[nH]c2=O)cc1 (centres undefined) | > 56 µg/mL |
| O=C(NCc1ccco1)c1nc2nc(-c3cccs3)cc(C(F)(F)F)n2n1 | 4.51 µg/mL (≈ 11.5 µM) |
| Oc1ccc(-c2nc(C3CC3)nc3c2CCN(Cc2ccc(F)cc2)CC3)cc1 | 8.86 µg/mL (≈ 22.8 µM) |
| O=C(NCCCc1ccccc1)C1CCN(c2nc(-c3ccc(Br)cc3)cs2)CC1 | 3.28 µg/mL (≈ 6.77 µM) |
